US20130079309A1, “Method Of Treating Acute Lung Injury Using Sphingosine 1 Phosphate Analogs Or Sphingosine 1 Phosphate Receptor Agonists” (The Board of Trustees of the University of Illinois, priority 2010, published 2013)
Residues, ends and D or L forms follow the SMILES beside them. *: point of attachment. Cbz = O=C(OCc1ccccc1)*

Columns and labels:
S1P receptor 1 (S1PR1) [1] = target: T1, S1P receptor 1 (S1PR1) (Homo sapiens, UniProt P21453); experiment: Ubiquitination of S1PR1 in HPAEC (immunoprecipitation, ubiquitin Ab); details: for ubiquitination of S1PR1 at 2 h: 1 μM (SEW2871 10 μM)
Description: S1PR1 was immunoprecipitated by S1PR1Ab, and ubiquitination of S1PR1 was detected by ubiquitin Ab.

[2] = test system: radiation-induced lung injury (RILI) in C57BL/6 mice; experiment: Murine model of RILI: BAL protein, BAL cell counts, BAL cytokines, EBD extravasation, body weight, lung histology; format: in vivo, mouse; details: 6 weeks
Procedure: Eight to 10-week-old C57BL/6J mice (Jackson Labs, Bar Harbor, Me.) were used for all studies in accordance with the University of Chicago Institutional Animal Care & Use Committee guidelines.
At the termination of each experiment, animals were euthanized by exsanguination under anesthesia in accordance with institutional guidelines. Both lungs were lavaged with 1.0 mL of Hank's buffered saline solution with the fluid allowed to equilibrate for 10 s before withdrawing. The pulmonary vasculature was perfused clear via the pulmonary artery with sterile phosphate-buffered saline (PBS). Both lungs were excised, weighed, and snap-frozen in liquid nitrogen for subsequent analysis. The BAL fluid collected was centrifuged at 500×g for 20 min at 4° C., and the supernatant was removed and recentrifuged at 12,000×g before snap-freezing. Cell pellets were resuspended in 0.5 mL of red blood cell lysis buffer (ACK Lysing Buffer; BioSource International, Camarillo, Calif.) for 20 min and then repelleted by centrifugation at 2500 rpm for 20 min at 4° C. The supernatant was decanted, and the cell pellet was resuspended in 0.2 mL of PBS for cellular analysis using a standard hemacytometer technique. A total of 300 BAL cells per slide were counted for cell differentials using a Diff-Quick-stained kit (Baxter Diagnostics, McGaw Park, Ill.). BAL protein concentrations were determined by a colorimetric BCA assay. Albumin concentrations in the BAL at 1:1000 and 1:100 dilutions, respectively, were quantitated by ELISA (Bethyl Labs, Montgomery, Tex.). To measure cytokines and chemokines, the BAL fluid was assayed with a Bioplex mouse cytokine kit (Bio-Rad, Hercules, Calif.) in accordance with the manufacturer's instructions.
All other chemicals were analytical or cell-culture grade and were obtained from various commercial sources. Evans Blue dye conjugated to albumin (EBA) was prepared by dissolving EBD to a concentration of 0.5% (5 mg/mL or 5.2 mM) in phosphate-buffered saline (PBS) (Ca^2+-Mg^2+ free; Invitrogen Corporation, Carlsbad, Calif.). To this solution, BSA was added to a final concentration of 4% (40 mg/mL or 0.6 mM), mixed well by stirring with a magnetic bar, allowed to stand for 30 min, and then sterile-filtered through a 0.22-μm syringe filter. The conjugate was stored in small aliquots at −80° C. To prevent cross-contamination, each aliquot was used only once in one animal and then discarded. 4, 6, 8, or 12 weeks after irradiation, the animals were injected with EBA via the jugular vein. At the end of exposure, the pulmonary circulation was flushed and lungs were harvested. Formamide extracts of lungs were prepared, with the initial modification that the homogenates were centrifuged at 12,000×g. Centrifugation at this relative centrifugal force (RCF) produced a compact pellet that allowed accurate measurement of the recovered volumes. Accurate estimation of such volumes is critical for calculating the final tissue dilution factor. Lungs, kidneys, and hearts from mice that were not injected with EBA were similarly extracted, to calculate the tissue-specific correction factors. […] Linear regression equations between absorbance at 740 nm (X) and 620 nm (Y) in tissue extracts of animals untreated with EBA were considered to be the tissue-specific correction factors. […] The EB concentration read in mg/mL was converted to μg/g wet weight of lungs using the dilution factor of the original homogenate as described above.
Eight to 10-week-old C57BL/6J mice (Jackson Labs, Bar Harbor, Me.) were used for all studies in accordance with the University of Chicago Institutional Animal Care & Use Committee guidelines. […] (FIG. 4A). Bronchoalveolar lavage (BAL) was performed as described above. BAL protein concentrations were determined by a colorimetric BCA assay. Albumin concentrations in the BAL at 1:1000 and 1:100 dilutions, respectively, were quantitated by ELISA (Bethyl Labs, Montgomery, Tex.).

S1P receptor 1 (S1PR1) [3] = target: T1, S1P receptor 1 (S1PR1); experiment: S1PR1 protein expression in HPAEC by Western blot; format: cell-based; set-up: Cells were collected and S1PR1 expression level was detected by Western blot; endogenous in cells; host or cells: HPAEC (human pulmonary artery endothelial cells); details: for S1PR1 expression level compared to control: 1 μM (SEW2871 10 μM), 4 h
Description: Cells were collected and S1PR1 expression level was detected by Western blot.

β-arrestin = details: 1 μM (SEW2871 10 μM; (S)-FTY720-phosphonate 1, 10, 50 μM), 5 h
Procedure: After another 2 h-incubation with fluorescence substrate, the fluorescence intensity (blue and green channels) were detected and the blue/green emission ratio was used as the activation indicator.

[4] = test system: lung vascular leakage in RILI mice; experiment: ViSen FMT lung imaging of intravascular probe extravasation in RILI mice; format: in vivo, mouse; details: 0.1 mg/kg, 25 Gy, 6 weeks
Procedure: Lung imaging studies were also performed with assessment of RILI-induced extravasation of an intravascular probe.
To assess microvascular changes associated with RILI in real-time, mice were imaged with ViSen FMT 1500 Quantitative Tomography In Vivo Imaging System. Intergisens^750 NIR (ViSen Medicals, Bedford, Mass.) was used as a probe, which targets the vasculature as a selective non-peptide small molecule integrin αvβ3 antagonist and a near-infrared fluorochrome. Mice were injected with probe ([…], IV) at 6 weeks post radiation and imaged 24 hrs later. Probe intensity was quantified using TrueQuant 3D software (VisSen Medicals).

HPAEC [5] = experiment: Transendothelial electrical resistance (TER) of HPAEC; format: cell-based, human; details: for maximal percentage TER change compared with S1P and FTY720 / maximal TER change: within 60 min; for maximal TER change: 10 μM
Procedure: Cells were grown at 37° C. in a 5% CO2 incubator, and passages 6 to 9 were used for experiments. Media were changed 1 day before experimentation.

ERK = experiment: Western blotting of HPAEC lysates for phospho-ERK; format: cell-based, human; details: 5 min
Procedure: (§1) After treatment as outlined for individual experiments, confluent HPAEC were lysed for Western blotting with phospho-MLC, pan-MLC, phospho-ERK, or pan-ERK antibodies. […] Membranes were then immunoblotted with primary antibodies (1:500-1000, 4° C., overnight) followed by secondary antibodies conjugated to horseradish peroxidase (1:5000, room temperature, 30 min) and detected with enhanced chemiluminescence (Pierce ECL or SuperSignal West Dura; Pierce Biotechnology, Rockford, Ill.) on Biomax MR film (Carestream Health, Rochester, N.Y.).

HPAEC [6] = experiment: Pharmacologic inhibitor effects on barrier enhancement (TER); details: 1 μM agonist, 60 min; for % Inhibition of Maximal TER Response (of Agonist-Only Control), PTX: 2-h preincubation 100 ng/ml PTX; for % Inhibition of Maximal TER Response (of Agonist-Only Control), MβCD: 2-h preincubation 2 mM MβCD; for % Inhibition of Maximal TER Response (of Agonist-Only Control), Gen: 30-min preincubation 200 μM genistein
Procedure: Endothelial cells were grown to confluence in polycarbonate wells containing evaporated gold microelectrodes (surface area, 10^−3 cm^2) in series with a large gold counter electrode (1 cm^2) connected to a phase-sensitive lock-in amplifier. Current was applied across the electrodes by a 4,000-Hz AC voltage source with amplitude of 1 V in series with a 1 MΩ resistance to approximate a constant current source (˜1 μA). The in-phase and out-of-phase voltages between the electrodes were monitored in real time with the lock-in amplifier and subsequently converted to scalar measurements of transendothelial impedance, of which resistance was the primary focus. TER was monitored for 30 minutes to establish a baseline resistance (R0) which, for bovine pulmonary endothelium, was typically between 8 to 12×10^3Ω (wells with R0<7×10^3Ω were rejected). As cells adhere and spread out on the microelectrode, TER increases (maximal at confluence), whereas cell retraction, rounding, or loss of adhesion is reflected by a decrease in TER. These measurements provide a highly sensitive biophysical assay that indicates the state of cell shape and focal adhesion. Values from each microelectrode were pooled at discrete time points and plotted versus time as the mean±SE of the mean. TER values from each microelectrode were pooled as discrete time points and plotted versus time as the mean±S.E.M.
In this experiment, confluent HPAEC were plated on gold microelectrodes and then stimulated with 1 μM S1P, FTY720, 1R, 1S, 2R, or 2S after either a 2-h preincubation with 100 ng/ml PTX, 30-min preincubation with 200 μM genistein (Gen), or 2-h preincubation with 2 mM MβCD or their respective vehicle controls. Data were pooled from multiple TER experiments (4-10 independent experiments per condition) and expressed as percentage inhibition of maximal barrier enhancement at 60 min relative to agonist-only control.

HPAEC [7] = experiment: Transwell transendothelial permeability assay (FITC-dextran); format: cell-based, human; details: 1 μM (3R, 3S 25 μM), 1 h before FITC-dextran, 2-h incubation
Procedure: As a complementary approach to further characterize the barrier-protective effects of these FTY720 analogs in vitro, the permeability of FITC-labeled dextran across the pulmonary EC monolayer was assayed in response to treatment by the FTY720 analogs. […] Data were normalized to unstimulated control. n=3 independent experiments per condition; *, p<0.01 versus unstimulated condition (see FIG. 26).

MLC = experiment: Western blotting of HPAEC lysates for phospho-MLC; format: cell-based, human; details: 5 min
Procedure: as §1

[8] = 0.01 or 0.1 mg/kg i.p. 2×/wk from 1 wk before irradiation (20 Gy)

T1 sequence (P21453 whole entry): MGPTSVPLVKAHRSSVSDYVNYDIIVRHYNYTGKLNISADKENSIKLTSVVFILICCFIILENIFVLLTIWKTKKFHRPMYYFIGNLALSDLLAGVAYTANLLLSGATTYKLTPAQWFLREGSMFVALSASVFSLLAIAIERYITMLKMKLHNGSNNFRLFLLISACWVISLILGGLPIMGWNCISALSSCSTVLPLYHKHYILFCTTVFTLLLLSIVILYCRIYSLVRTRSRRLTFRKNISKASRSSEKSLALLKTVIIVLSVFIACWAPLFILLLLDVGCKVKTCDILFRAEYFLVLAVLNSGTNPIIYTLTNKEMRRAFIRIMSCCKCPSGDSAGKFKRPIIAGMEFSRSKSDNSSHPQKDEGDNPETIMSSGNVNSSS

Structure (SMILES) | ubiquitination of S1PR1 at 2 h (S1P receptor 1 (S1PR1) [1]) | S1PR1 expression level compared to control (S1P receptor 1 (S1PR1) [3]) [%] | activation of β-arrestin (blue/green emission ratio) (β-arrestin) | maximal percentage TER change compared with S1P and FTY720 (HPAEC [5]; 1 μM) | maximal TER change (HPAEC [5]) | ERK phosphorylation (ERK) | % Inhibition of Maximal TER Response (of Agonist-Only Control), PTX (HPAEC [6]) | % Inhibition of Maximal TER Response (of Agonist-Only Control), MβCD (HPAEC [6]) | % Inhibition of Maximal TER Response (of Agonist-Only Control), Gen (HPAEC [6]) | also measured
FC(F)(F)c1cccc(-c2noc(-c3cc(-c4ccccc4)c(C(F)(F)F)s3)n2)c1 [SEW2871, 5-[4-phenyl-5-(trifluoromethyl)-2-thienyl]-3-[3-(trifluoromethyl)phenyl]-1,2,4-oxadiazole] | significant ubiquitination | 30.3 | strongly activated | – | – | – | – | – | – | lung histology: inflammatory cell infiltration and interstitial edema induced by radiation ([2]; 0.1 mg/kg i.p. 2×/wk, 25 Gy): to a lesser extent; BAL cell counts vs RILI-challenged controls [2, 8]: dose-dependent protective effect; BAL protein vs RILI-challenged controls [2, 8]: dose-dependent protective effect; radiation-induced probe extravasation (probe intensity), FMT imaging [4]: significant decreases
CCCCCCCCc1ccc(CC[C@](N)(CO)CCP(=O)(O)O)cc1 [1R, (R)-3-amino-3-(hydroxymethyl)-5-(4-octylphenyl)pentylphosphonic acid] | significant ubiquitination | 47.2 | strongly activated | greater maximal percentage TER change | even greater maximal TER elevation | increased phosphorylation of ERK | 79.2 (±5.9) % | 67.0 (±19.7) % | 54.3 (±14.7) % | ubiquitination of S1PR1 at 1 h (S1P receptor 1 (S1PR1) [1]; 1 μM, 1 h): only slight ubiquitination; S1PR1 expression, agonist without MG132 (S1P receptor 1 (S1PR1) [3]; 1 μM, 4 h (FIG. 18)): 66.3%; S1PR1 expression, agonist after MG132 pretreatment (S1P receptor 1 (S1PR1) [3]; MG132 10 μM 2 h, then 1 μM agonist 4 h): 94.2%
CC(C)C[C@@H](C=O)NC(=O)[C@H](CC(C)C)NC(=O)[C@H](CC(C)C)NC(=O)OCc1ccccc1 [MG132, reference compound] (Cbz-Leu-Leu-Leu-aldehyde) | – | – | – | – | – | – | – | – | – | S1PR1 expression, MG132 alone (S1P receptor 1 (S1PR1) [3]; 10 μM): did not affect the expression of S1PR1
CCCCCCCCc1ccc(CC[C@@](N)(C=CP(=O)(O)O)CO)cc1 [2R, (R)-3-amino-3-(hydroxymethyl)-5-(4-octylphenyl)pent-1-enylphosphonic acid] | – | – | – | greater maximal percentage TER change | even greater maximal TER elevation | increased phosphorylation of ERK | 88.1 (±7.8) % | 87.4 (±5.4) % | 41.1 (±12.2) % | –
CCCCCCCCc1ccc(CC[C@](N)(C=CP(=O)(O)O)CO)cc1 [2S, (S)-3-amino-3-(hydroxymethyl)-5-(4-octylphenyl)pent-1-enylphosphonic acid] | – | – | – | – | somewhat barrier-disruptive | failed to induce phosphorylation | 76.3 (±12.0) % | 95.2 (±1.0) % | 91.6 (±2.4) % | –
CCCCCCCCc1ccc(CCC(O)(CN)CCO)cc1 (centres unmarked) [3R, 3-(aminomethyl)-5-(4-octylphenyl)pentane-1,3-diol] | – | – | – | – | – | did not increase ERK or MLC phosphorylation | – | – | – | TER response (tracing) (HPAEC [5]; 1 μM): barrier-disruptive; EC permeability to FITC-dextran vs control EC (HPAEC [7]): increase EC permeability; MLC phosphorylation (MLC): did not increase ERK or MLC phosphorylation
